Source: patent US5922718A, “Triazolones as apolipoprotein-B synthesis inhibitors” (Janssen Pharmaceutica, N.V., priority 1995, dated 1999)
Read-outs that look alike come from different tables or passages of the source.

Tested on: apolipoprotein B
Experiment: Apolipoprotein B (apo B) Inhibition Test
Assay type: cell-based, human
Settings: HepG2-cells, overnight at 37° C., radioactively labelled leucine, double immunoprecipitation, read-out: IC50 (concentration of the drug needed to reduce apoB secretion to 50% of the control)
Method: Cultured human liver cells (HepG2-cells), which synthesize and secrete low-density lipoproteins, were incubated overnight at 37° C. in a liquid medium containing radioactively labelled leucine. Thus radioactively labelled leucine was incorporated into the apolipoprotein B. The liquid medium was decanted and the apolipoprotein B was isolated by means of a double immunoprecipitation, i.e. first an apolipoprotein B-specific antibody (antibody1) was added to the liquid medium and subsequently a second antibody (antibody2) was added which binds specifically to the apoB-antibody1 -complex. The thus formed apoB-antibody1 -antibody2 complex precipitated and was isolated by centrifuge. Quantification of the amount of apolipoprotein B synthesized during the night resulted from measuring the radioactivity of the isolated complex. To measure the inhibiting activity of the test compound, that test compound was added to the liquid medium at different concentrations and the concentration of apolipoprotein B synthesized in the presence of a test compound (concentration apoB(after)) was compared to the concentration of apolipoprotein B which was synthesized in the absence of the test compound (concentration apoB(control)). For each experiment the inhibition of apolipoprotein-B formation was expressed as
% inhibition=100×(1-concentration of apoB(after)/concentration
When more experiments were carried out for the same concentration, the median value of the inhibition calculated for these experiments was calculated. IC50 -values (concentration of the drug needed to reduce apoB secretion to 50% of the control) were also computed.

Row | IC50 (Homo sapiens) [nM] | IC50 [nM] | SMILES
1 | 860 |  | CCC(C)n1cnn(-c2ccc(N3CCN(c4ccc(OC[C@H]5CO[C@](Cn6cncn6)(c6ccc(F)cc6)O5)cc4)CC3)cc2)c1=O (stereo partly shown) [Compound 20]
2 | 720 |  | CC(C)n1cnn(-c2ccc(N3CCN(c4ccc(OC[C@H]5CO[C@](Cn6cncn6)(c6ccc(Cl)cc6Cl)O5)cc4)CC3)cc2)c1=O (relative stereo) [Compound 17]
3 | 340 |  | CC(C)n1cnn(-c2ccc(N3CCN(c4ccc(OC[C@H]5CO[C@](Cn6cncn6)(c6ccc(F)cc6F)O5)cc4)CC3)cc2)c1=O (relative stereo) [Compound 23]
4 | 910 |  | CC(C)n1cnn(-c2ccc(N3CCN(c4ccc(OC[C@H]5CO[C@](Cn6cncn6)(c6cccc7ccccc67)O5)cc4)CC3)cc2)c1=O (relative stereo) [Compound 24]
5 | 560 |  | CC(C)n1cnn(-c2ccc(N3CCN(c4ccc(OC[C@H]5CO[C@](Cn6ccnc6)(c6cccc7ccccc67)O5)cc4)CC3)cc2)c1=O (relative stereo) [Compound 9]
6 | 630 |  | CC(C)n1cnn(-c2ccc(N3CCN(c4ccc(OC[C@H]5CO[C@](Cn6ccnc6)(c6ccc(Cl)cc6Cl)O5)cc4)CC3)cc2)c1=O (relative stereo) [Compound 7]
7 | 290 |  | CC(C)n1cnn(-c2ccc(N3CCN(c4ccc(OC[C@H]5CO[C@](Cn6cccn6)(c6ccc(F)cc6F)O5)cc4)CC3)cc2)c1=O (relative stereo) [Compound 10]
8 | 390 |  | CCC(C)n1cnn(-c2ccc(N3CCN(c4ccc(OC[C@H]5CO[C@](Cn6cncn6)(c6ccc(Cl)cc6Cl)O5)cc4)CC3)cc2)c1=O (stereo partly shown) [Compound 22]
9 | 170 |  | CCC(C)n1cnn(-c2ccc(N3CCN(c4ccc(OC[C@H]5CO[C@](Cn6cncn6)(c6ccc(F)cc6F)O5)cc4)CC3)cc2)c1=O (stereo partly drawn) [Compound 19, cis-2-[4-[4-[4-[[2-(2,4-difluorophenyl)-2-(1H-1,2,4-triazol-1yl-methyl)-1,3-dioxolan-4-yl]methoxy]phenyl]-1-piperazinyl]phenyl]-2,4-dihydro-4-(1-methylpropyl)-3H-1,2,4-triazol-3-one]
10 | 230 |  | CCC(C)n1cnn(-c2ccc(N3CCN(c4ccc(OCC5COC(CCn6cncn6)(c6ccc(F)cc6F)O5)cc4)CC3)cc2)c1=O (stereo not shown) [Compound 25]
11 | 1000 |  | CCCn1c(C)nn(-c2ccc(N3CCN(c4ccc(OC[C@H]5CO[C@](Cn6ccnc6)(c6ccc(Cl)cc6Cl)O5)cc4)CC3)cc2)c1=O (relative stereo) [Compound 4]
12 | 270 |  | CCC(C)n1cnn(-c2ccc(N3CCN(c4ccc(OCC5COC(CCn6cncn6)(c6ccc(Cl)cc6)O5)cc4)CC3)cc2)c1=O (stereo not shown) [Compound 27]
13 |  | 300 | CCC(C)n1cnn(-c2ccc(N3CCN(c4ccc(OCC5COC(CCn6cncn6)(c6ccc(F)cc6F)O5)cc4)CC3)cc2)c1=O (stereo not shown) [Compound 26]
